Test system: cartilage cells of individual affected unhealthy dogs
Assay: Cartilage cells of affected dogs cultured in vitro with 0 or 60 mg/l curcumin or andrographolide for 6 hours, microarray fold change in gene expression
Assay type: cell-based, German Shepherd dogs
Details: for Fold change of gene expression, mean: 60 mg/l vs 0, 6 hours; for Net effect of the NBC on fold change, mean: net of fold change in unhealthy dogs
Protocol: Total RNA of cells was extracted using phenol/guanidine HCI reagents (Trizol, Invitrogen). RNA quality integrity was analysed using the Agilent 2100 Bioanalyser (Agilent Technologies) of the sample. The samples determined to have no, or minimal, loss of integrity and thus were considered suitable for use in experiments. mRNA was amplified for each sample, starting with 500 ng total RNA using a commercially available kit (Ambion T7 MEGAscript high yield transcription kit, Ambion). The mRNA was quantified using a spectrophotometer. mRNA was directly reverse transcribed to cDNA from […] using the Superscript indirect cDNA labeling Core kit (Invitrogen, Milan, Italy).
Two micrograms of cDNA were labelled with Cyanine-3dCTP (Cy3) or Cyanine-5dCTP (Cy5) fluorochromes using the cDNA labeling purification module kit (Invitrogen, Milan, Italy). Samples were hybridised to a canine specific, whole genome 44k spot 60mer oligonucleotide (Agilent Technologies). The labelled cDNA was appropriately coupled and used for competitive hybridization on the same microarray at 42° C. for 16 h. Fluorescence incorporation was determined using a spectrophotometer. The relative intensity of labelled cDNA in was acquired with ScanArray LITE scanner (PerkinElmer Life Sciences, Inc).
Expression data were then exported into Excel 2007 and processed with SAM software; comparison between groups was achieved using paired student's t tests. […] Correction for multiple hypothesis testing was performed using the false discovery rate (FDR).
Searching within the nutrient data set for biologically active nutrients with anti-arthritic and anti-inflammatory properties identified curcumin and androgropholide as the appropriated compositions. The cartilage cells of individual affected unhealthy dogs were cultured in vitro with 0, or 60 mg/l of curcumin or androgropholide for 6 hours. At the end of the incubation, these cartilage cells from individual affected dogs were washed and used for RNA extraction. For the microarray analysis, co-hybridisation of the RNA from 0 and 60 mg/l was conducted, using the material and the methods described previously.
The table below reports the mean fold change in gene expression of two biologically active nutrients, namely curcumin and andrographolide. […] The dose to be added to the food or the nutrient composition is computed using literature data, which indicates a dose of 4 mg/kg body weight for either curcumin or andrographolide.

[1] = cartilage cells of affected dogs, 60 mg/l, 6 hours

Question: How did the “Fold change of gene expression, mean” value (gene ACTB) turn out when `C=C1CC[C@@H]2[C@](C)(CO)[C@H](O)CC[C@@]2(C)[C@@H]1C/C=C1/C(=O)OC[C@H]1O` [Androgrpholide] was run?
Answer: −1.0

Question: What about the “Net effect of the NBC on fold change, mean” value (gene ACTB, 60 mg/l, 6 hours) of the same compound?
Answer: 2.8

Question: And the “Fold change of gene expression, mean” value (gene ACTR3)?
Answer: 1.0

Question: And the “Net effect of the NBC on fold change, mean” value (gene ACTR3, 60 mg/l, 6 hours)?
Answer: 1.3

Question: And the “Fold change of gene expression, mean” value (gene ADK)?
Answer: 0.0

Question: What about the “Net effect of the NBC on fold change, mean” value (gene ADK, 60 mg/l, 6 hours) of the same compound?
Answer: 3.6

Question: What about the “Fold change of gene expression, mean” value (gene ANKRD10) of the same compound?
Answer: 0.0

Question: What about the “Net effect of the NBC on fold change, mean” value (gene ANKRD10, 60 mg/l, 6 hours) of the same compound?
Answer: 5.2

Question: And the “Fold change of gene expression, mean” value (gene CAV1)?
Answer: 0.0

Question: What about the “Net effect of the NBC on fold change, mean” value (gene CAV1, 60 mg/l, 6 hours) of the same compound?
Answer: 4.8

Question: And the “Fold change of gene expression, mean” value (gene CDH11)?
Answer: −1.0

Question: What about the “Net effect of the NBC on fold change, mean” value (gene CDH11, 60 mg/l, 6 hours) of the same compound?
Answer: 5.9

Question: What about the “Fold change of gene expression, mean” value (gene COL3A1) of the same compound?
Answer: −2.0

Question: What about the “Net effect of the NBC on fold change, mean” value (gene COL3A1, 60 mg/l, 6 hours) of the same compound?
Answer: 7.5

Question: And the “Fold change of gene expression, mean” value (gene COX1)?
Answer: 0.0

Question: And the “Net effect of the NBC on fold change, mean” value (gene COX1, 60 mg/l, 6 hours)?
Answer: 0.8

Question: What about the “Fold change of gene expression, mean” value (gene COX2) of the same compound?
Answer: 0.0

Question: And the “Net effect of the NBC on fold change, mean” value (gene COX2, 60 mg/l, 6 hours)?
Answer: 23.0

Question: And the “Fold change of gene expression, mean” value (gene IGFBP7)?
Answer: −2.0

Question: And the “Net effect of the NBC on fold change, mean” value (gene IGFBP7, 60 mg/l, 6 hours)?
Answer: 1.7

Question: What about the “Fold change of gene expression, mean” value (gene IL2) of the same compound?
Answer: −6.0

Question: And the “Net effect of the NBC on fold change, mean” value (gene IL2, 60 mg/l, 6 hours)?
Answer: −3.0

Question: And the “Fold change of gene expression, mean” value (gene MMP2)?
Answer: −5.0

Question: What about the “Net effect of the NBC on fold change, mean” value (gene MMP2, 60 mg/l, 6 hours) of the same compound?
Answer: 5.0

Question: And the “Fold change of gene expression, mean” value (gene NOS2)?
Answer: −6.0

Question: And the “Net effect of the NBC on fold change, mean” value (gene NOS2, 60 mg/l, 6 hours)?
Answer: −5.8

Question: What about the “Fold change of gene expression, mean” value (gene PTGS-2) of the same compound?
Answer: −5.0

Question: What about the “Net effect of the NBC on fold change, mean” value (gene PTGS-2, 60 mg/l, 6 hours) of the same compound?
Answer: −3.8

Question: And the “Fold change of gene expression, mean” value (gene SPARC)?
Answer: 0.0

Question: What about the “Net effect of the NBC on fold change, mean” value (gene SPARC, 60 mg/l, 6 hours) of the same compound?
Answer: 6.3

Question: What about the “Fold change of gene expression, mean” value (gene STMN1) of the same compound?
Answer: 0.0

Question: What about the “Net effect of the NBC on fold change, mean” value (gene STMN1, 60 mg/l, 6 hours) of the same compound?
Answer: 6.2

Question: And the “Fold change of gene expression, mean” value (gene TIMP1)?
Answer: 0.0

Question: And the “Net effect of the NBC on fold change, mean” value (gene TIMP1, 60 mg/l, 6 hours)?
Answer: 6.2

Question: What about the “Fold change of gene expression, mean” value (gene TIMP2) of the same compound?
Answer: 0.0

Question: And the “Net effect of the NBC on fold change, mean” value (gene TIMP2, 60 mg/l, 6 hours)?
Answer: 2.0

Question: And the “Fold change of gene expression, mean” value (gene TNF-a)?
Answer: −8.0

Question: And the “Net effect of the NBC on fold change, mean” value (gene TNF-a, 60 mg/l, 6 hours)?
Answer: 2.0

Question: And the “Fold change of gene expression, mean” value (gene TUBA)?
Answer: 0.0

Question: What about the “Net effect of the NBC on fold change, mean” value (gene TUBA, 60 mg/l, 6 hours) of the same compound?
Answer: 4.7

Question: And the “Fold change of gene expression, mean” value (gene TUBB)?
Answer: 0.0

Question: What about the “Net effect of the NBC on fold change, mean” value (gene TUBB, 60 mg/l, 6 hours) of the same compound?
Answer: 4.8

Question: `C=C1CC[C@@H]2[C@](C)(CO)[C@H](O)CC[C@@]2(C)[C@@H]1C/C=C1/C(=O)OC[C@H]1O` [andrographolide] was tested. Which Anti-inflammatory activity [1] did it give?
Answer: possesses an anti-inflammatory activity

Question: And the “Match with the regulation of the genes up- or down-regulated in affected unhealthy cartilage cells” value [1]?
Answer: does not exactly match the regulation of all the genes

Question: Which “Match with the regulation of the genes up- or down-regulated in affected unhealthy cartilage cells” value [1] does the source give for `COc1cc(/C=C/C(=O)CC(=O)/C=C/c2ccc(O)c(OC)c2)ccc1O` [curcumin] here?
Answer: completely satisfies these requirements

— patent publication US7970552B1, “Diagnostic system for selecting nutrition and pharmacological products for animals” (priority 2008, dated 2011)
